Laboratory results as given in patent US9617276B2, “Compounds and methods for treating AIDS and HIV infections” (priority 2009, dated 2017).

Assays:
Experiment in all cases: microbe, parasite or virus in culture
HIV-1APV5μM = assay type: cell-based; details: for EC50: Human immunodeficiency virus 1, MT4, read-out: EC50 (μM), HIV-1APV5 μM; for n-fold change in EC50, HIV-1APV5 μM: compared to wild-type HIV-1NL4-3
Procedure: (§1) The susceptibility of HIV-1LAI and primary HIV-1 isolates to various drugs were determined as described previously (Koh et al. 2003 Antimicrob Agents Chemother 47:3123-9). Briefly, MT-2 cells (2×10^4/ml) were exposed to 100 50% tissue culture infectious doses (TCID50S) of HIV-1LAI, in the presence or absence of various concentrations of drugs in 96-well microculture plates and were incubated at 37° C. for 7 days. After 100 μl of the medium was removed from each well, 3-(4,5-dimetylthiazol-2-yl)-2,5-diphenyltetrazolium bromide (MTT) solution (10 μl, 7.5 mg/ml in phosphate-buffered saline) was added to each well in the plate, followed by incubation at 37° C. for 3 h. […] All assays were performed in duplicate or triplicate. To determine the susceptibility of primary HIV-1 isolates to drugs, phytohemagglutinin-activated peripheral blood mononuclear cells (PHA-PBMCs; 106/ml) were exposed to 50 TCID50S of each. The target cells were exposed to HIV-1104pre or drug-resistant HIV-1 in the presence or absence of various concentrations of drugs and were incubated for 7 days. Upon the conclusion of the culture, the amounts of p24 Gag protein in the supernatants were determined using a fully automated chemiluminescent enzyme immunoassay system (Lumipulse F; Fujirebio Inc., Tokyo, Japan) (Maeda et al. 2001 J Biol Chem 276:35194-200). To determine the drug susceptibility of certain laboratory HIV-1 strains, MT-4 cells were used as target cells. In brief, MT-4 cells (10^5/ml) were exposed to 100 TCID50S of drug-resistant HIV-1 strains in the presence or absence of various concentrations of drugs and on day 7 of culture, the supernatant was harvested and the amounts of p24 Gag protein were determined. […] All assays were performed in duplicate or triplicate.
(§2) Numbers in parentheses represent n-fold changes in EC50s for each isolate compared to the EC50s for wild-type HIV-1NL4-3.

HIV-1AZV5μM = assay type: cell-based; details: for EC50: Human immunodeficiency virus 1, MT4, read-out: EC50 (μM), HIV-1AZV5 μM; for n-fold change in EC50, HIV-1AZV5 μM: compared to wild-type HIV-1NL4-3
Procedure: as §1, §2

HIV-1LPV5μM = assay type: cell-based; details: for EC50: Human immunodeficiency virus 1, MT4, read-out: EC50 (μM), HIV-1LPV5 μM; for n-fold change in EC50, HIV-1LPV5 μM: compared to wild-type HIV-1NL4-3
Procedure: as §1, §2

HIV-1SQV5μM = assay type: cell-based; details: for EC50: Human immunodeficiency virus 1, MT4, read-out: EC50 (μM), HIV-1SQV5 μM; for n-fold change in EC50, HIV-1SQV5 μM: compared to wild-type HIV-1NL4-3
Procedure: as §1, §2

HIV-1MDR/JSL = assay type: cell-based; details: for EC50: Human immunodeficiency virus 1, read-out: EC50 (μM), HIV-1MDR/JSL (NSI)
Procedure: as §1
(§3) These clinical strains contained 9 to 14 amino acid substitutions in the protease-encoding region, which have reportedly been associated with HIV-1 resistance to various PIs.
(§4) Amino acid substitutions identified in the protease-encoding region compared to the consensus type B sequence cited from the Los Alamos database include L63P in HIV-1ERS104pre; L10I, K14R, L33I, M36I, M46I, F53I, K55R, I62V, L63P, A71V, G73S, V82A, L90M, and I93L in HIV-1MDR/B; L10I, I15V, K20R, L24I, M36I, M46L, I54V, I62V, L63P, K70Q, V82A, and L89M in HIV-1MDR/C; L10I, V11I, T12E, I15V, L19I, R41K, M46L, L63P, A71T, V82A, and L90M in HIV-1MDR/G; L10I, K14R, R41K, M46L, I54V, L63P, A71V, V82A, L90M, I93L in HIV-1MDR/TM; L10I, K43T, M46L, I54V, L63P, A71V, V82A, L90M, and Q92K in HIV-1MDR/MM; L10I, L24I, I33F, E35D, M36I, N37S, M46L, I54V, R57K, I62V, L63P, A71V, G73S, and V82A in HIV-1MDR/JSL. HIV-1ERS104pre served as a source of wild-type HIV-1. EC50s were determined by using PHA-PBMs as target cells, and inhibition of p24 Gag protein production by each drug was used as an end point. Numbers in parentheses represent n-fold changes of EC50s for each isolate compared to EC50s for wild-type HIV-1ERS104pre.

HIV-1MDR/MM = assay type: cell-based; details: for EC50: Human immunodeficiency virus 1, read-out: EC50 (μM), HIV-1MDR/MM (NSI); for n-fold change of EC50, HIV-1MDR/MM: compared to wild-type HIV-1ERS104pre
Procedure: as §1, §3, §4

HIV-1216-P50 = assay type: cell-based, HIV-1; details: for EC50: Human immunodeficiency virus 1, MT4, read-out: EC50 (μM), HIV-1216-p50; for n-fold change in EC50, HIV-1216-p50: compared to wild-type HIV-1NL4-3
Procedure: (§5) Briefly, MT-2 cells (2×10^4/ml) were exposed to 100 50% tissue culture infectious doses (TCID50S) of HIV-1LAI, in the presence or absence of various concentrations of drugs in 96-well microculture plates and were incubated at 37° C. for 7 days. After 100 μl of the medium was removed from each well, 3-(4,5-dimetylthiazol-2-yl)-2,5-diphenyltetrazolium bromide (MTT) solution (10 μl, 7.5 mg/ml in phosphate-buffered saline) was added to each well in the plate, followed by incubation at 37° C. for 3 h. […] All assays were performed in duplicate or triplicate. […] To determine the drug susceptibility of certain laboratory HIV-1 strains, MT-4 cells were used as target cells. In brief, MT-4 cells (10^5/ml) were exposed to 100 TCID50S of drug-resistant HIV-1 strains in the presence or absence of various concentrations of drugs and on day 7 of culture, the supernatant was harvested and the amounts of p24 Gag protein were determined. […] All assays were performed in duplicate or triplicate.
as §2

HIV-1246-1μM = assay type: cell-based, HIV-1; details: for EC50: Human immunodeficiency virus 1, MT4, read-out: EC50 (μM), HIV-1246-1 μM; for n-fold change in EC50, HIV-1246-1 μM: compared to wild-type HIV-1NL4-3
Procedure: as §5, §2

HIV-1286-1μM = assay type: cell-based, HIV-1; details: for EC50: Human immunodeficiency virus 1, MT4, read-out: EC50 (μM), HIV-1286-1 μM; for n-fold change in EC50, HIV-1286-1 μM: compared to wild-type HIV-1NL4-3
Procedure: as §5, §2

HIV-1396-1μM = assay type: cell-based, HIV-1; details: for EC50: Human immunodeficiency virus 1, MT4, read-out: EC50 (μM), HIV-1396-1 μM; for n-fold change in EC50, HIV-1396-1 μM: compared to wild-type HIV-1NL4-3
Procedure: as §5, §2

SMILES | EC50 (HIV-1APV5μM) [µM] | EC50 (HIV-1AZV5μM) [µM] | EC50 (HIV-1LPV5μM) [µM] | EC50 (HIV-1SQV5μM) [µM] | EC50 (HIV-1MDR/JSL) [µM] | EC50 (HIV-1MDR/MM) [µM] | EC50 (HIV-1216-P50) [µM] | EC50 (HIV-1246-1μM) [µM] | EC50 (HIV-1286-1μM) [µM] | EC50 (HIV-1396-1μM) [µM] | n-fold change in EC50, HIV-1APV5 μM (HIV-1APV5μM) | n-fold change in EC50, HIV-1AZV5 μM (HIV-1AZV5μM) | n-fold change in EC50, HIV-1LPV5 μM (HIV-1LPV5μM) | n-fold change in EC50, HIV-1SQV5 μM (HIV-1SQV5μM) | n-fold change of EC50, HIV-1MDR/JSL (HIV-1MDR/JSL; compared to wild-type HIV-1ERS104pre) | n-fold change of EC50, HIV-1MDR/MM (HIV-1MDR/MM) | n-fold change in EC50, HIV-1216-p50 (HIV-1216-P50) | n-fold change in EC50, HIV-1246-1 μM (HIV-1246-1μM) | n-fold change in EC50, HIV-1286-1 μM (HIV-1286-1μM) | n-fold change in EC50, HIV-1396-1 μM (HIV-1396-1μM)
CC(C)CN(C[C@@H](O)[C@H](Cc1ccccc1)NC(=O)O[C@H]1CCOC1)S(=O)(=O)c1ccc(N)cc1 [APV, Amprenavir] | > 1 | 0.28 ± 0.06 | 0.26 ± 0.07 | 0.18 ± 0.1 | 0.62 ± 0.02 | 0.21 ± 0.222 | 0.26 ± 0.03 | 0.34 ± 0.015 | > 1 | 0.35 ± 0.0002 | – | – | – | – | – | – | – | – | – | –
COC(=O)N[C@H](C(=O)N[C@@H](Cc1ccccc1)[C@@H](O)CN(Cc1ccc(-c2ccccn2)cc1)NC(=O)[C@@H](NC(=O)OC)C(C)(C)C)C(C)(C)C [AZV, Atazanavir] | 0.006 ± 0.002 | > 1 | 0.036 ± 0.001 | 0.21 ± 0.065 | 0.43 ± 0.036 | 0.18 ± 0.021 | 0.014 ± 0.003 | 0.032 ± 0.003 | 0.021 ± 0.012 | 0.024 ± 0.002 | (2) | > 250 | (9) | (53) | (215) | (39) | (4) | (10) | (7) | (8)
COc1ccc2c(c1)OCCCC=CCCCCN(CC(O)C(Cc1ccccc1)NC(=O)OC1COC3OCCC13)S2(=O)=O (stereo not shown) [Compound 14b] | > 1 | 0.03 ± 0.006 | 0.35 ± 0.019 | 0.046 ± 0.021 | 0.21 ± 0.032 | 0.055 ± 0.025 | 0.19 ± 0.06 | 0.33 ± 0.03 | > 1 | 0.25 ± 0.05 | > 111 | (3) | (39) | (5) | – | (8) | (32) | (55) | > 167 | (42)
